From patent US20100286069A1, “CATIONIC PEPTIDE FOR DELIVERING AN AGENT INTO A CELL” (priority 2007, published 2010)
“Also recorded” adds a separate entry of the source. Where no end group is shown, it is not given here.

Columns and labels:
HEK293 cell line = assay: In vitro luciferase gene expression in HEK293 (Example 2); format: cell-based, human
Method: (§1) Cell culture: Both HEK293 and HepG2 cell lines were cultured in high glucose DMEM medium supplemented with 10% fetal bovine serum (FBS), 100 μg/mL penicillin, and 100 μg/mL streptomycin at 37° C. in a humidified 5% carbon dioxide incubator. 4T1 cell line was also cultured with the same condition as the other cell lines, but in RPMI 1640 growth medium supplemented with 10 mM HEPES.
(§2) In vitro gene expression: HEK293, HepG2, and 4T1 cells were seeded onto 24-well plates at 80,000, 80,000 and 50,000 cells/well, respectively, using the same growth medium and conditions as described previously. After one day, the cells achieved about 70-80% confluence, at which transfection experiments were performed. Briefly, peptide/pDNA complexes were prepared at N/P 1, 10, 20, 30, 35, 40, 45 and 50, and different pH in either sodium acetate buffer (pH 5) or phosphate buffer (pH 6.5 and 7.4). The transfection pH was firstly optimized using HEK293 cell lines and AK27 peptide. […] The total amount of DNA loaded was kept constant at 2.5 μg/well. Cells were allowed to incubate with serum and antibiotics-supplemented growth medium (500 μL/well), onto which the complex solutions (50 μL/well) were added. After four hours following the incubation with the complexes, the medium was then replaced with the fresh one. […] The relative light units (RLU) were measured using a luminometer (Lumat LB9507, Berthold, Germany). […]

[1] = Zeta potential measurement (Example 2); format: physicochemical; conditions: N/P ratio 40; phosphate buffer pH 6.5
Method: Particle size and Zeta potential measurement: The particle size and zeta potential of the complexes were measured by dynamic light scattering (Brookhaven Instrument Corp., Holtsville, N.Y., U.S.A.) and using Zetasizer (Malvern Instrument Ltd., Worchestershire, UK), respectively. Briefly, AK27/pDNA and AK32/pDNA complexes were formed in phosphate buffer (pH 6.5) at room temperature at different N/P ratios (i.e. 1, 10, 20, 30 and 40). All the particle size measurements were performed with a light source of 677 nm wavelength and 15° constant angle. The particle size measurement was repeated for 5 runs for each sample, and the data was reported as the effective mean diameter. The zeta potential measurement was repeated for 3 runs per samples, and the data was calculated automatically using the software from the electrophoretic mobility based on the Smoluchowski's formula.

[2] = MTT cytotoxicity assay in three cell lines (Example 2); format: cell-based, human, mouse; conditions: HEK293, HepG2 and 4T1 cells; blank nanoparticles and pDNA complexes, even at higher N/P ratios
Method: as §1
Cytotoxicity assay: The cytotoxicity of AK27, AK32, AK27/pDNA and AK32/pDNA complexes were all measured using the standard MTT assay protocol. Briefly, HEK293, HepG2 and 4T1 cell lines were seeded onto 96-well plates at 10,000 cells/well, 8,000 cells/well, and 6,000 cells/well seeding density, respectively. Post cell-seeding, the cells were incubated for one day before being used for cytotoxicity assay. For cytotoxicity assay with AK27/pDNA, complexes at N/P ratios of 1, 10, 20, 30, 35, 40, 45 and 50 were prepared in phosphate buffer (pH 6.5) as described earlier. […] After homogenizing the solution, 100 μL of the samples was spectrophotometrically read in a microplate reader (Biorad) at 550 nm and 690 nm wavelength. The relative cell viability was measured as ([Abs550]sample−[Abs690]sample)/([Abs550]control−[Abs690]control)×100%.

[3] = tested on: HEK293, HepG2 and 4T1 cell lines; assay: In vitro luciferase gene expression, three cell lines (Example 2); format: cell-based, human, mouse; conditions: for luciferase gene expression level compared with PEI at N/P 10: general, three cell lines
Method: as §1
In vitro gene expression: HEK293, HepG2, and 4T1 cells were seeded onto 24-well plates at 80,000, 80,000 and 50,000 cells/well, respectively, using the same growth medium and conditions as described previously. After one day, the cells achieved about 70-80% confluence, at which transfection experiments were performed. Briefly, peptide/pDNA complexes were prepared at N/P 1, 10, 20, 30, 35, 40, 45 and 50, and different pH in either sodium acetate buffer (pH 5) or phosphate buffer (pH 6.5 and 7.4). The transfection pH was firstly optimized using HEK293 cell lines and AK27 peptide. […] The total amount of DNA loaded was kept constant at 2.5 μg/well. Cells were allowed to incubate with serum and antibiotics-supplemented growth medium (500 μL/well), onto which the complex solutions (50 μL/well) were added. After four hours following the incubation with the complexes, the medium was then replaced with the fresh one. After 68 hours, the culture medium was removed, and the cells were washed with 0.5 mL of PBS (pH 7.4). 0.2 mL of reporter lysis buffer (Promega, Madison, Wis.) was then added to each well to lyse the cells. The cell suspension was next subjected to two cycles of freezing and thawing, and was centrifuged at 14,000 rpm for 5 minutes. 20 μL of the supernatant of the cell lysate was mixed with 100 μL of luciferase substrate (Promega). The relative light units (RLU) were measured using a luminometer (Lumat LB9507, Berthold, Germany). The luciferase activity was normalized to protein content using the BCA protein assay (Sigma). In all these experiments, both naked DNA-transfected cells and PEI-transfected cells were used as negative and positive controls, respectively. […]

pDNA = assay: Gel retardation assay (Example 2); format: binding; conditions: PBS; N/P 1 to 10
Method: Complex formation of peptide amphiphiles with DNA: Complexes were formed at different N/P ratios by directly mixing equal volume of peptide and plasmid DNA (pDNA) solutions to achieve the intended N/P ratio, which measured the relative molar content of nitrogen atoms (N) in each peptide molecule to that of the phosphate groups (P) in each pDNA molecule, and was calculated based on the standardized 3 μgDNA/nmole DNA rule of thumb as described previously (31). To allow for complete electrostatic interaction between peptide and pDNA molecules, the solution was equilibrated at room temperature for 30 minutes upon mixing before being used for further studies.
Gel retardation assay: Various formulations of AK27/pDNA and AK32/pDNA complexes, ranging from N/P ratios of 1 to 10, were prepared in PBS. Post-equilibration, the complexes were electrophoresed on 1% agarose gel (stained with 4 μL of 0.5 μg/ml ethidium bromide per 50 mL of gel) in 0.5×TBE buffer at 80 V for 60 minutes. The gel was then analysed on a UV illuminator (Chemi Genius, Evolve, Singapore) to show the position of the complexed pDNA relative to that of the non-complexed form.
DNA binding: Gel retardation assays of the two peptide-based amphiphiles were performed to qualitatively study the electrostatic interaction between the peptide and pDNA.

[4] = Critical micelle concentration (CMC) measurement with pyrene; format: physicochemical; conditions: PBS (pH 7.4)
Method: Critical micelle concentration (CMC) measurement: The CMC of the peptide amphiphile was measured using pyrene as the probe fluorescence molecule. A series of peptide solutions was prepared at various concentrations (0.01 to 2000 mg/L) in PBS. When excited at 337 nm wavelength, the electrons in the pyrene molecules absorb energy, and in turn, emit photons at wavelengths between 350-450 nm, as indicated by five emission peaks in the pyrene fluorescence spectrum (30). At the concentration of amphiphile above its CMC, when the amphiphile forms core/shell structured nanoparticles having a hydrophobic core and a hydrophilic shell, the pyrene molecules aggregate and are solubilized into the core giving […] intensity of the third peak in the emission spectrum. Therefore, monitoring the intensity of the third peak of pyrene's emission spectra, usually normalized to the first peak's intensity, provides a means to estimate the transition concentration (i.e. CMC) of the amphiphile aggregation.
The inflection point gives an estimate of CMC of AK27 in PBS (pH 7.4), which was approximately 120 mg/L.

4T1 cell line = assay: In vitro luciferase gene expression in 4T1 (Example 2); format: cell-based, mouse; conditions: PEI N/P 10, pH 6.5
Method: as §1, §2

HepG2 cell line = assay: In vitro luciferase gene expression in HepG2 (Example 2); format: cell-based, human; conditions: PEI N/P 10, pH 6.5
Method: as §1, §2

| Sequence | optimum complexation pH for transfection (HEK293 cell line; pH 5, 6.5 and 7.4 tested) | highest zeta potential of peptide/pDNA complexes [1] | viability at 4 h [2] [%] | highest luciferase expression level compared with PEI ([3]; at N/P ratio of 45, PEI N/P 10) | luciferase gene expression level compared with PEI at N/P 10 [3] | N/P ratio for complete retardation of DNA (pDNA) | CMC [4] | highest luciferase expression level compared with PEI (HEK293 cell line; PEI N/P 10, pH 6.5) | highest luciferase expression level compared with PEI (4T1 cell line) | highest luciferase expression level compared with PEI (HepG2 cell line) |
| --- | --- | --- | --- | --- | --- | --- | --- | --- | --- | --- |
| AAAAAAAAAAAAHHHHHKKKKKKKKKK [AK27, (A)12(H)5(K)10] | around 6.5 | approximately 7.8±1.1 mV | > 80 | about one order of magnitude lower | an order of magnitude less | 3 | approximately 120 mg/L | – | – | – |
| AAAAAAAAAAAAHHHHHKKKKKKKKKKKKKKK [AK32, (A)12(H)5(K)15] | – | ~18.2±0.5 mV | > 80 | – | almost comparable | 2 | – | comparable to that provided by PEI; also recorded: comparable to that yielded by PEI | less than an order of magnitude lower | comparable to that provided by PEI; also recorded: comparable to that yielded by PEI |
